Results as given in ChEMBL document CHEMBL1201862, “PubChem BioAssay data set” (2004).
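Results reflect a 48-hour exposure of cells in 96-well plates to compound at five concentrations. Here, GI50 denotes the concentration required for 50% inhibition of growth.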 Calls of active or inactive are those of the source. Rule as the data show it: active = GI50 up to about 1.1 µM and inactive = higher.

How the values were obtained:
Assay in all cases: DTP human tumour cell line panel, 48 h
SF-295 = test system: SF-295
SNB-75 = test system: SNB-75
SNB-19 = test system: SNB-19
HOP-92 = test system: HOP-92
NCI-H460 = test system: NCI-H460
K562 = test system: K562
UO-31 = test system: UO-31
IGROV-1 = test system: IGROV-1
NCI-H226 = test system: NCI-H226
OVCAR-5 = test system: OVCAR-5
SK-OV-3 = test system: SK-OV-3
SF-268 = test system: SF-268
OVCAR-4 = test system: OVCAR-4
786-0 = test system: 786-0
COLO 205 = test system: COLO 205
RXF 393 = test system: RXF 393
RPMI-8226 = test system: RPMI-8226
MCF7 = test system: MCF7
SR = test system: SR
BT-549 = test system: BT-549

| Structure (SMILES) | GI50 (SF-295) | GI50 (SNB-75) | GI50 (SNB-19) | GI50 (HOP-92) | GI50 (NCI-H460) | GI50 (K562) | GI50 (UO-31) | GI50 (IGROV-1) | GI50 (NCI-H226) | GI50 (OVCAR-5) | GI50 (SK-OV-3) | GI50 (SF-268) | GI50 (OVCAR-4) | GI50 (786-0) | GI50 (COLO 205) | GI50 (RXF 393) | GI50 (RPMI-8226) | GI50 (MCF7) | GI50 (SR) | GI50 (BT-549) |
| --- | --- | --- | --- | --- | --- | --- | --- | --- | --- | --- | --- | --- | --- | --- | --- | --- | --- | --- | --- | --- |
| CC1=CSC(O)(c2ccc(Cl)cc2)c2noc(=O)n21 (stereo not given) | > 100 µM (inactive) | 61.7 µM (inactive) | > 100 µM (inactive) | 94.8 µM (inactive) | 51.2 µM (inactive) | 61.1 µM (inactive) | 58.1 µM (inactive) | > 100 µM (inactive) | > 100 µM (inactive) | > 100 µM (inactive) | > 100 µM (inactive) | > 100 µM (inactive) | > 100 µM (inactive) | > 100 µM (inactive) | > 100 µM (inactive) | 71.6 µM (inactive) | 57.7 µM (inactive) | 66.4 µM (inactive) | 50.7 µM (inactive) | > 100 µM (inactive) |
| O=[N+]([O-])/C(C(Cl)=C(Cl)Cl)=C(/Sc1ccccc1)N1CCCCC1 | 43.1 µM (inactive) | > 100 µM (inactive) | > 58.7 µM (inactive) | > 100 µM (inactive) | > 100 µM (inactive) | 23.9 µM (inactive) | > 61.5 µM (inactive) | 16.5 µM (inactive) | > 100 µM (inactive) | > 100 µM (inactive) | 34.1 µM (inactive) | > 45.6 µM (inactive) | > 66.7 µM (inactive) | 31.8 µM (inactive) | > 100 µM (inactive) | 5.08 µM (inactive) | > 100 µM (inactive) | > 100 µM (inactive) | 2.79 µM (inactive) | > 100 µM (inactive) |
| CC1=CC[C@@]2(C)[C@@H]([C@@H]1C)[C@H]1CC[C@@H]3[C@@]4(C)CC[C@H](O)C(C)(C)[C@@H]4CC[C@@]3(C)[C@]1(C)C[C@@H]2O | 13.2 µM (inactive) | 30.3 µM (inactive) | 37.8 µM (inactive) | 25.6 µM (inactive) | 19.1 µM (inactive) | 4.2 µM (inactive) | > 100 µM (inactive) | 17.1 µM (inactive) | 27.2 µM (inactive) | > 50.8 µM (inactive) | > 44.7 µM (inactive) | 9.79 µM (inactive) | 24.3 µM (inactive) | 12.4 µM (inactive) | 15 µM (inactive) | 10.4 µM (inactive) | 9.23 µM (inactive) | 35.2 µM (inactive) | 3.46 µM (inactive) | 29.1 µM (inactive) |
| COc1cc(NS(C)(=O)=O)ccc1Nc1c2ccccc2nc2c1[nH]c1ccc(NC3OC(CO)C(O)C(O)C3O)cc12 (stereo not given) | < 0.0139 µM (active) | 0.0251 µM (active) | 0.0242 µM (active) | 0.0224 µM (active) | < 0.01 µM (active) | 0.191 µM (active) | 0.128 µM (active) | 0.248 µM (active) | < 0.0181 µM (active) | 0.444 µM (active) | 0.0173 µM (active) | 0.018 µM (active) | 1.36 µM (inactive) | 0.0246 µM (active) | 0.26 µM (active) | 0.144 µM (active) | 0.0973 µM (active) | 0.023 µM (active) | < 0.01 µM (active) | 1.3 µM (inactive) |
| Nc1nc(N)nc(CCCCc2nc(N)nc(N)n2)n1 | > 100 µM (inactive) | > 100 µM (inactive) | > 100 µM (inactive) | > 100 µM (inactive) | > 100 µM (inactive) | > 100 µM (inactive) | > 100 µM (inactive) | > 100 µM (inactive) | > 100 µM (inactive) | > 100 µM (inactive) | > 100 µM (inactive) | > 100 µM (inactive) | > 100 µM (inactive) | > 100 µM (inactive) | > 100 µM (inactive) | > 100 µM (inactive) | > 100 µM (inactive) | > 100 µM (inactive) | > 100 µM (inactive) | > 100 µM (inactive) |
| CCCCC/C(=N\c1[nH]nnc1C(N)=O)OCC | > 100 µM (inactive) | > 100 µM (inactive) | > 100 µM (inactive) | 26.2 µM (inactive) | > 100 µM (inactive) | > 100 µM (inactive) | > 100 µM (inactive) | > 100 µM (inactive) | > 100 µM (inactive) | > 100 µM (inactive) | > 100 µM (inactive) | > 100 µM (inactive) | > 100 µM (inactive) | > 100 µM (inactive) | > 100 µM (inactive) | > 100 µM (inactive) | > 100 µM (inactive) | > 100 µM (inactive) | > 100 µM (inactive) | > 100 µM (inactive) |
| Cc1cc(NS(=O)(=O)c2ccc(Nc3c4ccccc4nc4ccc(C(=O)Nc5ccc(S(=O)(=O)N=C(N)N)cc5)cc34)cc2)no1 | > 100 µM (inactive) | > 100 µM (inactive) | > 100 µM (inactive) | > 100 µM (inactive) | > 100 µM (inactive) | > 100 µM (inactive) | > 100 µM (inactive) | > 100 µM (inactive) | > 100 µM (inactive) | > 100 µM (inactive) | > 100 µM (inactive) | > 100 µM (inactive) | > 100 µM (inactive) | > 100 µM (inactive) | > 100 µM (inactive) | > 100 µM (inactive) | > 100 µM (inactive) | > 100 µM (inactive) | > 100 µM (inactive) | > 100 µM (inactive) |
| CCCCCCCCCCC1OC([C@@H](O)CC[C@H](O)C2CC[C@@H](CCCCCCCC(O)CC3=CC(C)OC3=O)O2)CCC1O (stereo not given in full) | 0.708 µM (active) | 3.41 µM (inactive) | 9.46 µM (inactive) | 8.95 µM (inactive) | 1.52 µM (inactive) | 0.204 µM (active) | 4.41 µM (inactive) | 2.61 µM (inactive) | 14 µM (inactive) | > 15 µM (inactive) | 7.67 µM (inactive) | 2.35 µM (inactive) | 8.61 µM (inactive) | 11.5 µM (inactive) | 6.85 µM (inactive) | > 9.77 µM (inactive) | 3.59 µM (inactive) | 6.79 µM (inactive) | 0.0025 µM (active) | 12.4 µM (inactive) |
| CCOP(=O)(OCC)/C(C#N)=C/c1cnc[nH]1 | > 100 µM (inactive) | > 100 µM (inactive) | > 100 µM (inactive) | > 100 µM (inactive) | > 100 µM (inactive) | > 100 µM (inactive) | > 100 µM (inactive) | > 100 µM (inactive) | > 100 µM (inactive) | > 100 µM (inactive) | > 100 µM (inactive) | > 100 µM (inactive) | > 100 µM (inactive) | > 100 µM (inactive) | > 100 µM (inactive) | > 100 µM (inactive) | > 100 µM (inactive) | > 100 µM (inactive) | > 100 µM (inactive) | > 100 µM (inactive) |
| CC1=CC(C)C(C)N(CCNS(=O)(=O)c2ccc(C)cc2)c2ccccc21 (stereo not given) | 13.8 µM (inactive) | 15.7 µM (inactive) | > 31.6 µM (inactive) | 18.8 µM (inactive) | 12.8 µM (inactive) | 14.7 µM (inactive) | 16.5 µM (inactive) | 17 µM (inactive) | 12.3 µM (inactive) | 18.7 µM (inactive) | 29.6 µM (inactive) | 13 µM (inactive) | 13.3 µM (inactive) | 14.2 µM (inactive) | 12.8 µM (inactive) | 12.1 µM (inactive) | 12.2 µM (inactive) | 14.2 µM (inactive) | 16 µM (inactive) | 17.1 µM (inactive) |
| Cc1cc(=O)oc2cc(OC(=O)Nc3ccc(Cl)c(Cl)c3)ccc12 | 20.9 µM (inactive) | 25.2 µM (inactive) | 25.9 µM (inactive) | 13.6 µM (inactive) | 18.5 µM (inactive) | 10.9 µM (inactive) | 27.4 µM (inactive) | 20.2 µM (inactive) | 20.3 µM (inactive) | 20.4 µM (inactive) | 36.4 µM (inactive) | 38 µM (inactive) | 41.3 µM (inactive) | 38.8 µM (inactive) | 32.4 µM (inactive) | 14.3 µM (inactive) | 9.29 µM (inactive) | 25.6 µM (inactive) | 19.7 µM (inactive) | 17.8 µM (inactive) |
| N#CC1(C#N)NC(c2cccs2)C(C#N)(C#N)NC1c1cccs1 (stereo not given) | 52.5 µM (inactive) | 27.4 µM (inactive) | 55.2 µM (inactive) | 23 µM (inactive) | 37.3 µM (inactive) | 22.4 µM (inactive) | 42.6 µM (inactive) | 30.3 µM (inactive) | 53.1 µM (inactive) | 31.9 µM (inactive) | 33.7 µM (inactive) | 35.5 µM (inactive) | 43.7 µM (inactive) | 39.9 µM (inactive) | 47.9 µM (inactive) | 31.7 µM (inactive) | 27.4 µM (inactive) | 12.2 µM (inactive) | 28.2 µM (inactive) | 21.2 µM (inactive) |
| CCCC[C@@H](C)/C=C1\CN2CCC[C@H]2[C@@](C)(OCc2ccccc2)[C@@H]1O | > 50 µM (inactive) | > 32.3 µM (inactive) | > 23.8 µM (inactive) | > 42 µM (inactive) | > 16.7 µM (inactive) | > 29.9 µM (inactive) | > 13.2 µM (inactive) | > 30.6 µM (inactive) | > 50 µM (inactive) | > 50 µM (inactive) | > 50 µM (inactive) | > 29.4 µM (inactive) | > 50 µM (inactive) | > 47.4 µM (inactive) | > 50 µM (inactive) | > 44.6 µM (inactive) | > 15.5 µM (inactive) | > 50 µM (inactive) | > 50 µM (inactive) | > 50 µM (inactive) |
| NC(=O)C1=C(c2ccccc2)c2ccccc2C1=O | 23 µM (inactive) | 19.7 µM (inactive) | 17.7 µM (inactive) | 17.7 µM (inactive) | 15.9 µM (inactive) | 38.1 µM (inactive) | 18.8 µM (inactive) | 16.1 µM (inactive) | 18.2 µM (inactive) | 18.6 µM (inactive) | 18.3 µM (inactive) | 17.8 µM (inactive) | 18.5 µM (inactive) | 15.7 µM (inactive) | 22 µM (inactive) | 19.7 µM (inactive) | 14.6 µM (inactive) | 16.1 µM (inactive) | 4.78 µM (inactive) | 16.9 µM (inactive) |
